# Source: PubChem BioAssay (NCI)
#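 Briefly, cells in 96-well plates were exposed to five compound concentrations for 48 h, and endpoints were estimated by linear interpolation. TGI: concentration producing complete growth inhibition.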
# Columns and labels:
# Assay in all cases: NCI-60 cell line screen, 48 h
# HCT-116 colon = tested on: HCT-116 colon
# ACHN renal = tested on: ACHN renal
# MDA-MB-231 breast = tested on: MDA-MB-231 breast
# K-562 leukemia = tested on: K-562 leukemia
# TK-10 renal = tested on: TK-10 renal
# NCI-H23 lung = tested on: NCI-H23 lung
# SF-295 CNS = tested on: SF-295 CNS
# UO-31 renal = tested on: UO-31 renal
# IGROV1 ovarian = tested on: IGROV1 ovarian
# SN12C renal = tested on: SN12C renal
# HL-60(TB) leukemia = tested on: HL-60(TB) leukemia
Structure (SMILES),TGI (HCT-116 colon) [µM],TGI (ACHN renal) [µM],TGI (MDA-MB-231 breast) [µM],TGI (K-562 leukemia) [µM],TGI (TK-10 renal) [µM],TGI (NCI-H23 lung) [µM],TGI (SF-295 CNS) [µM],TGI (UO-31 renal) [µM],TGI (IGROV1 ovarian) [µM],TGI (SN12C renal) [µM],TGI (HL-60(TB) leukemia) [µM]
CC1(C)SC2C(NC(=O)Cc3ccccc3)C(=O)N2C1C(=O)O (configuration not stated),> 100,> 100,> 100,> 100,> 100,> 100,> 100,> 100,> 100,> 100,> 100
COc1cc(/C=C/C(=O)O)ccc1O,> 100,> 100,> 100,> 100,> 100,> 100,> 100,> 100,> 100,> 100,> 100
c1ccc2c(Cc3c[nH]c4ccccc34)c[nH]c2c1,31.2,> 100,31.5,> 100,35.2,38.3,43.8,27.7,30.7,31.7,33.4
CCOC(=O)CC[C@@H](NC(=O)c1ccc(NCc2ccc3nc(OC)c(OC)nc3c2)cc1)C(=O)OCC,> 100,58.2,> 100,> 100,> 100,> 100,> 100,> 65.4,56.7,> 100,> 100
CC(=O)O/C(=C(/C#N)C(=O)O)C1C(C(=O)O)C(c2ccccc2[N+](=O)[O-])C=C(c2ccco2)N1c1ccncc1 (configuration not stated),3.06,4.5,14.6,> 100,11.3,12.7,19.2,7.53,3.29,10.2,> 100
Cc1cc2c(cc1Cl)Sc1nnc(C)n1S2(=O)=O,45.4,27.7,31.4,35.4,56.9,30.1,33.8,24.1,29.1,34.3,24.4
CCOC(=O)C1(Cc2ccccc2)CCN(C(=O)c2ccccc2)C2C1C2(Cl)Cl (configuration not stated),30,54.8,43.9,> 100,59.8,77,77.2,58.9,> 100,32.4,32.6
COc1ncc(C#CC(=O)c2ccccc2OC)c(OC)n1,9.72,3.27,2.75,> 42.9,2.62,7.56,39.7,2.97,3.98,1.91,4.63
OCCCN(CCc1ccc(Cl)c(Cl)c1)CCN1CCCC1,> 100,> 100,> 100,46.2,> 100,> 100,> 100,> 100,> 100,> 100,> 100
O=C(COC(=O)c1ccccc1)c1ccc(Br)cc1,30.2,65.9,30.5,> 100,10.8,49.2,32,6.08,3.59,29.4,48.2
O=C(NCCCCNCCCNC(=O)C(F)(F)F)C(F)(F)F,> 100,> 100,> 100,> 100,> 100,> 100,> 100,> 100,> 100,> 100,> 100
CCO[C@H]1C[C@@H](c2ccccc2)[C@]2(C)C[C@H](C(=O)OC)ON2O1,> 100,> 100,> 100,> 100,> 100,> 100,> 100,> 100,> 100,> 100,> 100
C/C=C/[C@@H]1O[C@H](CC#C[Si](C)(C)C)[C@@]2(C=O)C(C)=CC[C@H](C(C)C)[C@@H]12,36.9,39.9,36.6,> 100,31.5,49.6,67.3,3.53,10.7,34.8,19.2
CCOC(=O)c1c(NC(=O)c2ccccc2)sc2c1CCC2,> 100,> 100,> 100,> 100,> 100,> 100,> 100,> 100,> 100,> 100,> 100
COC(=O)c1ccc(NCC2=CC(=O)c3ccccc3C2=O)cc1,35.3,42.4,10.3,32.2,37.1,38.2,35.1,35.8,30.2,59.3,> 25.9
CCOC(=O)NC(N(C)C(C(C)C)P(=O)(OCC)OCC)(C(F)(F)F)C(F)(F)F (configuration not stated),> 100,> 100,> 100,> 100,> 100,> 100,> 100,> 100,> 100,> 100,> 100
CC1(C)OC2CN(C(=O)OCc3ccccc3)C(CO)C2O1 (configuration not stated),> 100,> 100,> 100,> 100,> 100,> 100,> 100,> 100,> 100,> 100,> 100
